Assay results as given in ChEMBL document CHEMBL4311943, “3-[(1S,2S,3R)-2,3-Difluoro-1-hydroxy-7-methylsulfonylindan-4-yl]oxy-5-fluorobenzonitrile (PT2977), a Hypoxia-Inducible Factor 2α (HIF-2α) Inhibitor for the Treatment of Clear Cell Renal Cell Carcinoma” (J Med Chem, 2019).
The source made the active and inactive calls. No cut-off for these calls is given here.

What was measured:
[1] = target: RAC-beta serine/threonine-protein kinase (Homo sapiens) (UniProt P31751); test: Activity at human PKBbeta at 10 uM
[2] = Volume of distribution at steady state in monkey at 1 mg/kg, iv by UPLC-MS analysis; format: ADME, organism-based, Macaca mulatta; settings: rhesus monkey, in vivo, read-out: Vdss
[3] = Half life in patient with advanced solid tumor at 240 mg, po administered once daily measured on day 15; format: ADME, organism-based; settings: human, in vivo
[4] = target: Phosphorylase b kinase gamma catalytic chain, liver/testis isoform (Homo sapiens) (UniProt P15735); test: Activity at human PhKgamma2 at 10 uM
[5] = target: Serine/threonine-protein kinase D1 (Homo sapiens) (UniProt Q15139); test: Activity at human PKCmu at 10 uM
[6] = target: Prostaglandin E2 receptor EP3 subtype (Homo sapiens) (UniProt P43115); test: Activity at human Prostanoid EP3 receptor at 10 uM
[7] = target: cGMP-dependent protein kinase 1 (Homo sapiens) (UniProt Q13976); test: Activity at human PKG1alpha at 10 uM
[8] = Half life in CD-1 mouse at 3 mg/kg, iv by UPLC-MS analysis; format: ADME, organism-based; settings: in vivo
[9] = Drug level in plasma of SCID Beige mouse xenografted with human 786-O cells at 1 mg/kg, po administered twice daily via gavage for 3 days measured 12 hrs post-last dose; format: ADME, organism-based
[10] = target: Alpha-1A adrenergic receptor (Homo sapiens) (UniProt P35348); test: Activity at human alpha1A receptor at 10 uM
[11] = target: Cyclin-dependent kinase 5/CDK5 activator 1 (Homo sapiens) (UniProt Q00535+Q15078); test: Activity at human CDK5/p25 at 10 uM; format: protein-complex assay
[12] = Half life in patient with advanced solid tumor at 160 mg, po administered once daily measured on day 15; format: ADME, organism-based; settings: human, in vivo
[13] = Clearance in monkey at 1 mg/kg, iv by UPLC-MS analysis; format: ADME, organism-based, Macaca mulatta; settings: rhesus monkey, in vivo
[14] = target: D(2) dopamine receptor (Homo sapiens) (UniProt P14416); test: Activity at human D2L receptor at 10 uM
[15] = target: Delta-type opioid receptor (Homo sapiens) (UniProt P41143); test: Activity at human delta opioid receptor at 10 uM
[16] = Half life in patient with advanced solid tumor at 80 mg, po administered once daily measured on day 15; format: ADME, organism-based; settings: human, in vivo
Cytochrome P450 2C9 = Cytochrome P450 2C9 (Homo sapiens, UniProt P11712); test: Inhibition of CYP2C9 in human liver microsomes up to 50 uM using diclofenac as substrate measured after 10 mins in presence of NADPH by LC-MS/MS analysis; format: ADME
[17] = target: Adenosine receptor A1 (Homo sapiens) (UniProt P30542); test: Activity at human adenosine A1 receptor at 10 uM
[18] = target: P2Y purinoceptor 1 (Homo sapiens) (UniProt P47900); test: Activity at human P2Y1 receptor at 10 uM
[19] = AUClast in patient with advanced solid tumor at 40 mg, po administered once daily measured on day 15; format: ADME, organism-based; parameters: dose 40 mg, time 0 - last, route oral; settings: human, in vivo
[20] = target: Inward rectifier potassium channel 2 (Homo sapiens, UniProt P63252); test: Activity at human Kir2.1 at 10 uM
[21] = target: C-C chemokine receptor type 2 (Homo sapiens) (UniProt P41597); test: Activity at human CCR2B receptor at 10 uM
[22] = target: Cysteinyl leukotriene receptor 1 (Homo sapiens) (UniProt Q9Y271); test: Activity at human CysLT1 receptor at 10 uM
[23] = target: Vasopressin V1a receptor (Homo sapiens) (UniProt P37288); test: Activity at human V1A receptor at 10 uM
[24] = target: D(1A) dopamine receptor (Homo sapiens) (UniProt P21728); test: Activity at human D1 receptor at 10 uM
[25] = target: Receptor-type tyrosine-protein kinase FLT3 (Homo sapiens) (UniProt P36888); test: Activity at human Flt3 at 10 uM
[26] = Plasma concentration in patient with advanced solid tumor at 240 mg, po administered once daily measured on day 15 after 24 hrs; format: ADME, organism-based; settings: human
Cytochrome P450 3A4 = Cytochrome P450 3A4 (Homo sapiens, UniProt P08684); test: Inhibition of CYP3A4 in human liver microsomes up to 50 uM using midazolam as substrate measured after 10 mins in presence of NADPH by LC-MS/MS analysis; format: ADME
[27] = Lipophilicity, log D of the compound at pH 7.4; format: physicochemical; settings: buffer
[28] = target: Cyclin-dependent kinase 2/cyclin E1 (Homo sapiens) (UniProt P24864+P24941); test: Activity at human CDK2/cyclinE at 10 uM; format: protein-complex assay
[29] = target: 5-hydroxytryptamine receptor 2A (Homo sapiens) (UniProt P28223); test: Activity at human 5-HT2A receptor at 10 uM
[30] = Clearance in CD-1 mouse at 3 mg/kg, iv by UPLC-MS analysis; format: ADME, organism-based; settings: in vivo
[31] = target: Prokineticin receptor 1 (Homo sapiens) (UniProt Q8TCW9); test: Activity at human PK1 receptor at 10 uM
[32] = target: Protein kinase C eta type (Homo sapiens) (UniProt P24723); test: Activity at human PKCeta at 10 uM
[33] = target: Calcium/calmodulin-dependent protein kinase type IV (Homo sapiens) (UniProt Q16566); test: Activity at human CAMK4 at 10 uM

Inward rectifier potassium channel 2, sequence (P63252 whole entry): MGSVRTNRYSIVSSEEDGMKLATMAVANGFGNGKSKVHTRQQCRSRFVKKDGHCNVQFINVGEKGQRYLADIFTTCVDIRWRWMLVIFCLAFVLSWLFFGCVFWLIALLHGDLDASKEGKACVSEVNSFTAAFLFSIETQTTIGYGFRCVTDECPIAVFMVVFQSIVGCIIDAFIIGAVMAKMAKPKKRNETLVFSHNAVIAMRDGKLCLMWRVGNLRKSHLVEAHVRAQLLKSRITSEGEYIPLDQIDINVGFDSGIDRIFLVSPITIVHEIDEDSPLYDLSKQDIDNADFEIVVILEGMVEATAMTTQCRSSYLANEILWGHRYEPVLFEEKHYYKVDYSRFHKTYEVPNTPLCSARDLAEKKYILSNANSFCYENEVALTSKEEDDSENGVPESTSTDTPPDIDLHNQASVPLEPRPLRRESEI
cGMP-dependent protein kinase 1 (Homo sapiens), sequence (Q13976 whole entry): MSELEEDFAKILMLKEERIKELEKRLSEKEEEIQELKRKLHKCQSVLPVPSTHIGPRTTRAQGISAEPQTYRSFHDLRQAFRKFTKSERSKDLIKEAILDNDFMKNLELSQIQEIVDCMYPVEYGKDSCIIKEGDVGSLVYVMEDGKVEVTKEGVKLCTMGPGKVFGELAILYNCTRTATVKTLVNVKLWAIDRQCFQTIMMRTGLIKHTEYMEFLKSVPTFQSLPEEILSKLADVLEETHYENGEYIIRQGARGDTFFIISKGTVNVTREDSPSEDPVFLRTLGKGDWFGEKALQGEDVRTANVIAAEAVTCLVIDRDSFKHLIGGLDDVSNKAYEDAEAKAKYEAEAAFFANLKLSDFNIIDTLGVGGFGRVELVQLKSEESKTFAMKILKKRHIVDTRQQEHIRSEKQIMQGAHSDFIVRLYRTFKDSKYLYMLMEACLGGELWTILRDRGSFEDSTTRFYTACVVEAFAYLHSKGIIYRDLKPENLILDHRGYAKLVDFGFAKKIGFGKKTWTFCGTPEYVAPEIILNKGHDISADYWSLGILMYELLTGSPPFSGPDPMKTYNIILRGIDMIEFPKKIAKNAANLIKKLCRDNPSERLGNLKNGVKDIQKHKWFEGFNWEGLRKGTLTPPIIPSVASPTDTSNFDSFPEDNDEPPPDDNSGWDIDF
Protein kinase C eta type (Homo sapiens), sequence (P24723 whole entry): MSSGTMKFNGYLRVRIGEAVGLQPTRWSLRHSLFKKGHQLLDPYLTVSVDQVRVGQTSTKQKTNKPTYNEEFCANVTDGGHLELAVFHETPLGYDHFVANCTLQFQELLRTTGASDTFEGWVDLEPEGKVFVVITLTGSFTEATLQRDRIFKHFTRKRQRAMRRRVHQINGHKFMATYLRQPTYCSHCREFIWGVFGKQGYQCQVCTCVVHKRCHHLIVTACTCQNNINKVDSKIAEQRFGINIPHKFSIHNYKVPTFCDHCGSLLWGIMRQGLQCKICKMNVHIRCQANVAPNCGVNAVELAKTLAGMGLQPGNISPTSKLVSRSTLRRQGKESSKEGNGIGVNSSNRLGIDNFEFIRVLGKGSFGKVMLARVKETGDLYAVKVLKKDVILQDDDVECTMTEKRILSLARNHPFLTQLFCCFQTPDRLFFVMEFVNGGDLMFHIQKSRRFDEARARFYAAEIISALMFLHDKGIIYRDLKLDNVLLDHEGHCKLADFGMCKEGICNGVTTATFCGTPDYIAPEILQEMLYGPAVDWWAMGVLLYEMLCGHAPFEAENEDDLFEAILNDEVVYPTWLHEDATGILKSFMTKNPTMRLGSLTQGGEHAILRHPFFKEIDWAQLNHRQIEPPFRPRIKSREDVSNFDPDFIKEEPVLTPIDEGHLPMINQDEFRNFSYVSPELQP
Cytochrome P450 2C9, sequence (P11712 whole entry): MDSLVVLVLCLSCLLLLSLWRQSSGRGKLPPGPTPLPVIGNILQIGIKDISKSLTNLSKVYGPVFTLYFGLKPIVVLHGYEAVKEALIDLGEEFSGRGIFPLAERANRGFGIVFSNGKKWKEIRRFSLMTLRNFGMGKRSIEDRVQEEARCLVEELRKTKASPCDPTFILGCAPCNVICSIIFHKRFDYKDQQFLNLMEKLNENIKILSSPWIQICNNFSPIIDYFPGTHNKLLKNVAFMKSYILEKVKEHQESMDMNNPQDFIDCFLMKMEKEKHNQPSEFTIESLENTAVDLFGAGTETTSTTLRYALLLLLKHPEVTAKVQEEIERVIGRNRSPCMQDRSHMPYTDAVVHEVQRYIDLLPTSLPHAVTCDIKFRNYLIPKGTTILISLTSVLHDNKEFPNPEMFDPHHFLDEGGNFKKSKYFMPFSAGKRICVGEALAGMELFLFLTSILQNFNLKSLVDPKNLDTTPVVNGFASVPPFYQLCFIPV
Delta-type opioid receptor (Homo sapiens), sequence (P41143 whole entry): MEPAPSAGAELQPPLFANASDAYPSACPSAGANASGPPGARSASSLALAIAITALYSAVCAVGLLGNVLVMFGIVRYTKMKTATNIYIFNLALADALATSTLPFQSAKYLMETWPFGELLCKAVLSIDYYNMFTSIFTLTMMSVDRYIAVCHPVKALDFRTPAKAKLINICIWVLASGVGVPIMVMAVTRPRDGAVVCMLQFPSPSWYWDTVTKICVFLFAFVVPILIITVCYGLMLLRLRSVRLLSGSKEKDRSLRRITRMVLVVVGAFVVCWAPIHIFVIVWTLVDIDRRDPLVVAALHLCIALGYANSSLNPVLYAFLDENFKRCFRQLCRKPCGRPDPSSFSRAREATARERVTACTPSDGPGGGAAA
C-C chemokine receptor type 2 (Homo sapiens), sequence (P41597 whole entry, looked up): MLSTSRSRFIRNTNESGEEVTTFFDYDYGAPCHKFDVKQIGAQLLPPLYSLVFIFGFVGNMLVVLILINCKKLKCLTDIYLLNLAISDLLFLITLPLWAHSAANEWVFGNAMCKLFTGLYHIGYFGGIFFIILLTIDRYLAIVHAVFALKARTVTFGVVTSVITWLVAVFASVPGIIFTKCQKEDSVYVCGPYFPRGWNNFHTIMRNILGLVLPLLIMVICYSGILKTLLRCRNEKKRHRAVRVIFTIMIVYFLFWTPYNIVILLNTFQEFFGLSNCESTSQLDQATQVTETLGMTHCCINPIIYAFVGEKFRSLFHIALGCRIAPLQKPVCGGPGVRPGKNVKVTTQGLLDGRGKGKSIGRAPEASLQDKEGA
RAC-beta serine/threonine-protein kinase (Homo sapiens), sequence (P31751 whole entry): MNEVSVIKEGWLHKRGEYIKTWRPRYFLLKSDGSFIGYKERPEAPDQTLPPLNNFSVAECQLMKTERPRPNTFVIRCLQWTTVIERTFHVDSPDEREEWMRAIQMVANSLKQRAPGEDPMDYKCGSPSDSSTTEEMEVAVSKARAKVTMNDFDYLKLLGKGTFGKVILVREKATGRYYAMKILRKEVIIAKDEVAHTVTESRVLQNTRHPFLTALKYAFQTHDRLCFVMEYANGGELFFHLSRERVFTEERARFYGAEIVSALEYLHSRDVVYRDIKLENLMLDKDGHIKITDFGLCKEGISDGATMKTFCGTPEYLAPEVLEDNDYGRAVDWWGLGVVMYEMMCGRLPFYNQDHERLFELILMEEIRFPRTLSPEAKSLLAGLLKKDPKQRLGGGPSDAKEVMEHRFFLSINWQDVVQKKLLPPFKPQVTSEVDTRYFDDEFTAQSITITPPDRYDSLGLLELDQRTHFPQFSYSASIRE
Prostaglandin E2 receptor EP3 subtype (Homo sapiens), sequence (P43115 whole entry): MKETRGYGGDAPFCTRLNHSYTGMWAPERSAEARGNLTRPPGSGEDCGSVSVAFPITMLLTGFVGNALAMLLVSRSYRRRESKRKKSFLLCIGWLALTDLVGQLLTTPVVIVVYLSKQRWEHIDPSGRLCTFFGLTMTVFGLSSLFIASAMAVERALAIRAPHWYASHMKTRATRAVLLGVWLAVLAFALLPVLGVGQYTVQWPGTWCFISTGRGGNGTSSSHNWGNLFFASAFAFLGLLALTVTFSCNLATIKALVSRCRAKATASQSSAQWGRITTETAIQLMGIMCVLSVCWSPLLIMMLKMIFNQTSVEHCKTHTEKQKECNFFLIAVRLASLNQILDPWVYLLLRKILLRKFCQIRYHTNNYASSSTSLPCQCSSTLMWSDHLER
Prokineticin receptor 1 (Homo sapiens), sequence (Q8TCW9 whole entry): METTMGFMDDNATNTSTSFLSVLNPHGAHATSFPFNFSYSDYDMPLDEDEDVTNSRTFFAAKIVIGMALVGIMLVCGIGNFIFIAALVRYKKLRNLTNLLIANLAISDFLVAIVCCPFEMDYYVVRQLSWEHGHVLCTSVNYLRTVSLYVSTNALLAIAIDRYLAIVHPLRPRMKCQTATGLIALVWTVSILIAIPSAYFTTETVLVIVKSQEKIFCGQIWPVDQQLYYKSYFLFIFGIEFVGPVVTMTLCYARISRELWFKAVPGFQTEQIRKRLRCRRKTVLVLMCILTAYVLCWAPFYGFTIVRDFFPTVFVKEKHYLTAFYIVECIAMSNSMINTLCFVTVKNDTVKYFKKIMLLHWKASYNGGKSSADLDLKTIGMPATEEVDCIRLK
D(1A) dopamine receptor (Homo sapiens), sequence (P21728 whole entry): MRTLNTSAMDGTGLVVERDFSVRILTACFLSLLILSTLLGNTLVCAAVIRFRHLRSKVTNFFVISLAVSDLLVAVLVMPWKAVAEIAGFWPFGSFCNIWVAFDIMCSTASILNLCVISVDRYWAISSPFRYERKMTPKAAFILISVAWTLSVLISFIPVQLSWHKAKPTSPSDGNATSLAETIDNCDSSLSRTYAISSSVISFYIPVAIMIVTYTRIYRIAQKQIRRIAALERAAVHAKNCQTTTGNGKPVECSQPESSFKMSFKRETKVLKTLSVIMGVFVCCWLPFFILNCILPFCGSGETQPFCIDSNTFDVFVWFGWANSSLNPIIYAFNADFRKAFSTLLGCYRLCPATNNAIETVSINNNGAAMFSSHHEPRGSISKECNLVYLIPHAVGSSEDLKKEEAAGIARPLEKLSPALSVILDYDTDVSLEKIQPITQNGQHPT

CS(=O)(=O)c1ccc(Oc2cc(F)cc(C#N)c2)c2c1[C@H](O)[C@H](F)[C@@H]2F [BELZUTIFAN]
Activity [1]: inactive
Vd [2]: 2.9 L/kg
half-life [3]: 14.1 h
Activity [4]: inactive
Activity [5]: inactive
Activity [6]: inactive
Activity [7]: inactive
half-life [8]: 4 h
concentration at 12 h [9]: 27 ng/mL
Activity [10]: inactive
Activity [11]: inactive
half-life [12]: 12.2 h
clearance [13]: 3.5 mL/min/kg
Activity [14]: inactive
Activity [15]: inactive
half-life [16]: 15.4 h
inhibition (INH) (Cytochrome P450 2C9): Not Active
Activity [17]: inactive
Activity [18]: inactive
AUC(0-t) [19]: 7100 ng·h/mL
Activity [20]: Not Active
Activity [21]: inactive
Activity [22]: inactive
Activity [23]: inactive
Activity [24]: inactive
Activity [25]: inactive
concentration at 24 h [26]: 570 ng/mL
inhibition (INH) (Cytochrome P450 3A4): Not Active
logD [27]: 1.2
Activity [28]: inactive
Activity [29]: inactive
clearance [30]: 21 mL/min/kg
Activity [31]: inactive
Activity [32]: inactive
Activity [33]: inactive
